Here are results for eight compounds from ChEMBL document CHEMBL4392860, “Characterization of the substrate scope of an alcohol dehydrogenase commonly used as methanol dehydrogenase” (Bioorg Med Chem Lett, 2019).

What all share (conditions): DSM 2334
Assay [1] concerns Geobacillus stearothermophilus.
Description: Substrate activity at Geobacillus stearothermophilus DSM 2334 ADH expressed in Escherichia coli BL21 (DE3) assessed as Kcat in 50 mM HEPES buffer at pH 7.5 at 23 degC by MTT dye based Lineweaver-Burk plot analysis
Assay [2] concerns Geobacillus stearothermophilus. This is another data set of the same source.
Description: Substrate activity at Geobacillus stearothermophilus DSM 2334 ADH expressed in Escherichia coli BL21 (DE3) assessed as Km in 50 mM HEPES buffer at pH 7.5 at 23 degC by MTT dye based Lineweaver-Burk plot analysis
Assay [3] concerns Geobacillus stearothermophilus. The source holds these as a separate data set.
Description: Substrate activity at Geobacillus stearothermophilus DSM 2334 ADH expressed in Escherichia coli BL21 (DE3) assessed as Kcat/Km ratio in 50 mM HEPES buffer at pH 7.5 at 23 degC by MTT dye based Lineweaver-Burk plot analysis

A word on the kcat: it is the number of substrate molecules converted per active site and unit of time at saturation. For orientation: Km means the substrate concentration at which the rate is half of its maximum. A word on the kcat/Km: it is the second-order rate constant that governs catalysis at low substrate concentration. `CCO`: in assay [1], the kcat came to 0.019 s⁻¹. Further, the Km in assay [2] was determined as 2.95 mM. In addition, in assay [3], the specificity constant (kcat/Km) worked out at 6.26 M⁻¹ s⁻¹.
Regarding `CO`, the turnover number (kcat) in assay [1] worked out at 0.013 s⁻¹. Besides, in assay [3], the specificity constant (kcat/Km) worked out at 0.044 M⁻¹ s⁻¹.
As for `CCCCO`, in assay [1], the catalytic constant (kcat) turned out to be 0.004 s⁻¹. In assay [2], the Km was 2.45 mM. Further, the kcat/Km in assay [3] is 1.67 M⁻¹ s⁻¹.
`CC(C)(C)O`: the catalytic constant (kcat) in assay [1] was found to be 0.026 s⁻¹. In assay [3], the catalytic efficiency (kcat/Km) worked out at 0.046 M⁻¹ s⁻¹.
For `CCCO`, the turnover number (kcat) in assay [1] was determined as 0.019 s⁻¹. Moreover, the Km in assay [2] came to 39.8 mM. In assay [3], the kcat/Km is 0.46 M⁻¹ s⁻¹.
Regarding `OCCCO`, in assay [1], the kcat stood at 0.041 s⁻¹. In addition, the Michaelis-Menten constant (Km) in assay [2] amounted to 23.6 mM. The kcat/Km in assay [3] was found to be 1.71 M⁻¹ s⁻¹.
With `CC(C)O`, the turnover number (kcat) in assay [1] is 0.076 s⁻¹. For the same compound, the Km in assay [2] is 1.26 mM. Also, in assay [3], the kcat/Km was 60.3 M⁻¹ s⁻¹.
For `CCC(C)O` (configuration not stated), the kcat in assay [1] came to 0.094 s⁻¹. For the same compound, in assay [2], the Km amounted to 23.8 mM. In addition, the specificity constant (kcat/Km) in assay [3] was determined as 3.96 M⁻¹ s⁻¹.
